Source: ChEMBL document CHEMBL1201862, “PubChem BioAssay data set” (2004)
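Test compounds were applied to cells in 96-well plates for 48 hours at 5 doses. GI50 is the concentration that inhibits growth by half.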 Activity calls are given as the source filed them. No stated cut-off is given here; in the data, active = GI50 up to about 1.1 µM and inactive = higher.

Key:
Assay in all cases: growth of human tumour cells (NCI), 48 h
[1] = test system: SK-MEL-28
[2] = test system: MDA-MB-435
[3] = test system: HL-60
[4] = test system: UACC-257
[5] = test system: SF-295
[6] = test system: SN12C
[7] = test system: MDA-N
[8] = test system: SF-268
[9] = test system: IGROV-1
[10] = test system: Malme-3M
[11] = test system: SK-MEL-5
[12] = test system: OVCAR-4
[13] = test system: NCI-H226
[14] = test system: ACHN
[15] = test system: 786-0
[16] = test system: KM12
[17] = test system: UO-31
[18] = test system: HOP-92
[19] = test system: SR
[20] = test system: HOP-62
[21] = test system: PC-3
[22] = test system: MOLT-4
[23] = test system: CAKI-1
[24] = test system: SK-OV-3
[25] = test system: A498
[26] = test system: OVCAR-8
[27] = test system: HCT-116
[28] = test system: Hs-578T
[29] = test system: RPMI-8226
[30] = test system: SK-MEL-2
[31] = test system: NCI-H460
[32] = test system: HCC 2998
[33] = test system: T47D
[34] = test system: OVCAR-5
[35] = test system: SF-539
[36] = test system: K562
[37] = test system: CCRF-CEM
[38] = test system: U-251
[39] = test system: SNB-19
[40] = test system: UACC-62
[41] = test system: A549
[42] = test system: NCI/ADR-RES
[43] = test system: DU-145
[44] = test system: BT-549
[45] = test system: NCI-H23
[46] = test system: EKVX
[47] = test system: SW-620
[48] = test system: HT-29
[49] = test system: LOX IMVI
[50] = test system: HCT-15
[51] = test system: MCF7
[52] = test system: TK-10
[53] = test system: COLO 205
[54] = test system: OVCAR-3
[55] = test system: MDA-MB-231
[56] = test system: RXF 393
[57] = test system: M14
[58] = test system: NCI-H522

## CCOC(=O)C1C(=O)CC1(C)C (stereo unspecified)
[1]
  GI50: > 10 µM (inactive)
[2]
  GI50: > 10 µM (inactive)
[3]
  GI50: > 10 µM (inactive)
[4]
  GI50: > 10 µM (inactive)
[5]
  GI50: > 10 µM (inactive)
[6]
  GI50: > 10 µM (inactive)
[7]
  GI50: > 10 µM (inactive)
[8]
  GI50: > 10 µM (inactive)
[9]
  GI50: > 10 µM (inactive)
[10]
  GI50: > 10 µM (inactive)
[11]
  GI50: > 10 µM (inactive)
[12]
  GI50: > 10 µM (inactive)
[13]
  GI50: > 10 µM (inactive)
[14]
  GI50: > 10 µM (inactive)
[15]
  GI50: > 10 µM (inactive)
[16]
  GI50: > 10 µM (inactive)
[17]
  GI50: > 10 µM (inactive)
[18]
  GI50: > 10 µM (inactive)
[19]
  GI50: > 10 µM (inactive)
[20]
  GI50: > 10 µM (inactive)
[21]
  GI50: > 10 µM (inactive)
[22]
  GI50: > 10 µM (inactive)
[23]
  GI50: > 10 µM (inactive)
[24]
  GI50: > 10 µM (inactive)
[25]
  GI50: > 10 µM (inactive)
[26]
  GI50: > 10 µM (inactive)
[27]
  GI50: > 10 µM (inactive)
[28]
  GI50: > 10 µM (inactive)
[29]
  GI50: > 10 µM (inactive)
[30]
  GI50: > 10 µM (inactive)
[31]
  GI50: > 10 µM (inactive)
[32]
  GI50: > 10 µM (inactive)
[33]
  GI50: > 10 µM (inactive)
[34]
  GI50: > 10 µM (inactive)
[35]
  GI50: > 10 µM (inactive)
[36]
  GI50: > 10 µM (inactive)
[37]
  GI50: > 10 µM (inactive)
[38]
  GI50: > 10 µM (inactive)
[39]
  GI50: > 10 µM (inactive)
[40]
  GI50: > 10 µM (inactive)
[41]
  GI50: > 10 µM (inactive)
[42]
  GI50: > 10 µM (inactive)
[43]
  GI50: > 10 µM (inactive)
[44]
  GI50: > 10 µM (inactive)
[45]
  GI50: > 10 µM (inactive)
[46]
  GI50: > 10 µM (inactive)
[47]
  GI50: > 10 µM (inactive)
[48]
  GI50: > 10 µM (inactive)
[49]
  GI50: > 10 µM (inactive)
[50]
  GI50: > 10 µM
[51]
  GI50: > 10 µM (inactive)
[52]
  GI50: > 10 µM (inactive)
[53]
  GI50: > 10 µM (inactive)
[54]
  GI50: > 10 µM (inactive)
[55]
  GI50: > 10 µM (inactive)
[56]
  GI50: > 10 µM (inactive)
[57]
  GI50: > 10 µM (inactive)

## CC1(C)OC2C(CO)OC(n3ccc(=O)[nH]c3=O)C2O1 (stereo unspecified)
[1]
  GI50: > 100 µM (inactive)
[2]
  GI50: > 100 µM (inactive)
[3]
  GI50: > 100 µM (inactive)
[4]
  GI50: > 100 µM (inactive)
[5]
  GI50: > 100 µM (inactive)
[6]
  GI50: > 100 µM (inactive)
[7]
  GI50: > 100 µM (inactive)
[8]
  GI50: > 100 µM (inactive)
[9]
  GI50: > 100 µM (inactive)
[11]
  GI50: > 100 µM (inactive)
[13]
  GI50: > 100 µM (inactive)
[14]
  GI50: > 100 µM (inactive)
[15]
  GI50: > 100 µM (inactive)
[17]
  GI50: > 100 µM (inactive)
[18]
  GI50: 83.2 µM (inactive)
[19]
  GI50: > 100 µM (inactive)
[20]
  GI50: > 100 µM (inactive)
[21]
  GI50: > 100 µM (inactive)
[22]
  GI50: > 100 µM (inactive)
[23]
  GI50: > 100 µM (inactive)
[24]
  GI50: > 100 µM (inactive)
[25]
  GI50: > 100 µM (inactive)
[26]
  GI50: > 100 µM (inactive)
[58]
  GI50: > 100 µM (inactive)
[27]
  GI50: > 100 µM (inactive)
[28]
  GI50: > 100 µM (inactive)
[29]
  GI50: > 100 µM (inactive)
[30]
  GI50: > 100 µM (inactive)
[31]
  GI50: > 100 µM (inactive)
[32]
  GI50: > 100 µM (inactive)
[33]
  GI50: > 100 µM (inactive)
[34]
  GI50: > 100 µM (inactive)
[35]
  GI50: > 100 µM (inactive)
[36]
  GI50: > 100 µM (inactive)
[37]
  GI50: > 100 µM (inactive)
[38]
  GI50: > 100 µM (inactive)
[39]
  GI50: > 100 µM (inactive)
[40]
  GI50: > 100 µM (inactive)
[41]
  GI50: > 100 µM (inactive)
[42]
  GI50: > 100 µM (inactive)
[43]
  GI50: > 100 µM (inactive)
[44]
  GI50: > 100 µM (inactive)
[45]
  GI50: > 100 µM (inactive)
[46]
  GI50: > 100 µM (inactive)
[47]
  GI50: > 100 µM (inactive)
[49]
  GI50: > 100 µM (inactive)
[50]
  GI50: > 100 µM
[51]
  GI50: > 100 µM (inactive)
[52]
  GI50: > 100 µM (inactive)
[53]
  GI50: > 100 µM (inactive)
[54]
  GI50: > 100 µM (inactive)
[55]
  GI50: > 100 µM (inactive)
[56]
  GI50: > 100 µM (inactive)
[57]
  GI50: > 100 µM (inactive)
